Consider one sequence from article PMC6315541, “Nile Tilapia Derived Antimicrobial Peptide TP4 Exerts Antineoplastic Activity Through Microtubule Disruption” (Marine Drugs, 2018).

Common to all, as to assay type: cell-based, human
Assay [1] has as its system microtubule network (α-Tubulin) in A549 cells. In words: Immunocytochemistry of microtubule network and peptide uptake in A549 cells. The note with it: for effect on microtubule network (α-Tubulin ICC): FITC-labeled mutants. How it is done: (§1) To examine whether TP4 may affect microtubule dynamics, A549 cells were treated with TP4, and cytoskeletal elements were analyzed by immunocytochemistry (ICC). […] We then asked whether TP4 treatment may influence tubulin protein levels by performing Western blots on lysates from A549 cells that had been treated with vehicle or TP4. […] We next conducted a microtubule regrowth assay to further address whether TP4 may disrupt microtubule polymerization. TP4 was applied to A549 cells that had been treated with or without Nocodazole (20 μM) treatment for 6 h, which completely depolymerizes the microtubule network. The repolymerization of microtubules was then initialized by the addition of fresh recovery medium, and regrowth was analyzed by ICC.
While the reduced toxicity may result from impaired binding to tubulin, it is also possible that such effects may be caused by conformational changes in the TP4 mutants, see Supplementary Figure S1C,D, which prevent intracellular penetration. To test this possibility, ICC was conducted to evaluate the cellular localization and the effects on microtubules. […] For both Gly and Ala substitution mutants, FITC-labeled TP4 mutants were able to be taken up intracellularly, see Figure 6B, panels MT-1 to MT-6. However, the microtubule network was only affected in MT-1- and MT-4-treated cells and not the other mutant-treated groups, as shown in Figure 6B.
Figure 6 Loss of cancer-killing ability in TP4 mutants. (A) Cell viability in A549 cells was determined by the adenosine triphosphate (ATP) assay following treatment with varying doses of TP4 and TP4 mutants for 24 h. Multiple wells were analyzed for each assay. Results represent the mean ± SD. Statistical comparisons between groups were performed using two-way ANOVA: a, not significant; b, p < 0.05; d, p < 0.001. Statistical analyses are shown in Supplementary Table S1. (B) Cells were stained for TP4 (WT panel), FITC (MT-1 to MT-6 panels), α-Tubulin, and F-actin. Hoechst33342 was used for nuclei staining. Boxed regions are magnified in the furthest right panels. […] Bar: 20 μm.
Cells were stained with TP4 (1:1000), FITC (1:500, ThermoFisher Scientific, clone 1F8-1E4), α-Tubulin (1:500), and appropriate Alexa Flour conjugated secondary antibody (1:500; ThermoFisher Scientific, Eugene, OR, USA). Hochest33342 was used for nuclear staining, and Alexa Fluor 647-conjugated phalloidin (1:200, Thermo Fisher Scientific, Eugene, OR, USA) was used to stain F-actin. For the confocal microscopic analysis, samples were mounted with fluorescent mounting medium (ProLong Gold Antifade Reagent, ThermoFisher Scientific, Eugene, OR, USA) and images were obtained with a FV3000 laser-scanning confocal microscope (Olympus), using a 60 × objective lens (Plapon 60 × OSC2, N.A. 1.4, oil) with the 4′,6-diamidino-2-phenylindole (DAPI) ([…]), green fluorescent protein (GFP) (EX 470, EM 525 for enhanced GFP (EGFP)), and Cy5 ([…]) emission filters. FV31S software (Olympus, Tokyo, Japan) was used for image acquisition.

In assay [2] the test system is α-Tubulin protein level in A549 cells. As to the kind of experiment: Western blot of α-Tubulin protein level in A549 cells. As to conditions: TP4 vs vehicle, Figure 2B. How it is done:
as §1
(§2) Figure 2 TP4 disrupts the microtubule network in cancer cells. (A) Cells were stained for α-Tubulin and F-actin. Hoechst33342 was used to stain nuclei. Arrows indicate cells with negative α-Tubulin staining. Bar: 20 μm. (B) Total lysates from cells with mock (labeled C) or TP4 treatment (labeled T) were analyzed by Western blot using antibodies against GAPDH and α-Tubulin. Quantification of the α-Tubulin signal normalized to GAPDH is shown. Mr is the molecular weight. […] Bar: 20 μm (D) Quantification of the number of cells with Tubulin-positive and Tubulin-negative staining. […]
(A western blot detects proteins with antibodies after separation by electrophoresis.)

Assay [3] concerns microtubule regrowth in A549 cells. As to the kind of experiment: Microtubule regrowth assay after nocodazole washout. The note with it: 10 μg mL^−1 TP4 3 h, nocodazole 20 μM 6 h, washout and recovery medium, α-Tubulin ICC, N = 3. As for the experimental part: as §1, §2

As for “FIHHIIGGLFSAGKAIHRLIRRRRR [TP4, synthesized Nile tilapia-derived antimicrobial peptide, Tilapia piscidin 4]”, the “effect on microtubule network (α-Tubulin ICC; F-actin not affected)” value in assay [1] (A549 cells treated with TP4, Figure 2A) was “clearly affected”. Besides, the “effect on microtubule network (α-Tubulin ICC)” value in assay [1] (A549 cells, TP4 6.71 μM, 3 h, Figure 6B) is “microtubule defects were clearly observed”; in assay [1] (A549 cells, TP4 6.71 μM, 3 h, Figure 6B, listed as WT) it was “microtubule abnormalities were observed”. Further, the “intracellular uptake (ICC, TP4 antibody or FITC)” value in assay [1] (A549 cells, TP4 6.71 μM, 3 h, mutants FITC-labeled, Figure 6B) is listed as “peptide penetration”. Moreover, the “level of α-Tubulin protein (normalized to GAPDH)” value in assay [2] was “not significantly affected”. In assay [3], the “cells with microtubule regrowth defects” value was “increased portion of TP4-treated cells had microtubule regrowth defects”.
